Measured values from patent US7553856B2, “Crystalline form of omeprazole” (Lek Pharmaceuticals d.d., priority 2001, dated 2009).

Tests used:
[1] = compared to previously-known omeprazole form B; cited from earlier work
[2] = Stability testing of omeprazole samples under stress/accelerated aging, evaluated by absorbance (Ph Eur); assay type: physicochemical; details: omeprazole form C obtained by the disclosed process; no numerical data printed
Description: The stability of omeprazole samples was determined by a standard procedure for testing the substances in pharmaceutical industry (CPMP/ICH/2736/99). […] Determination of absorbance, measured according to Ph Eur method (PhEur 3 Suppl 2000), is used as the criterion for evaluation of the sample quality during stability testing.

| Compound | hygroscopicity [1] | photostability [1] | thermodynamic stability [1] | stability according to the standard protocol for characterization of stability of a pharmaceutical active substance [2] |
| --- | --- | --- | --- | --- |
| COc1ccc2[nH]c([S+]([O-])Cc3ncc(C)c(OC)c3C)nc2c1 (stereo not shown) [omeprazole form A, 5-methoxy-2-[[(4-methoxy-3,5-dimethyl-2-pyridinyl)methyl]sulfinyl]-1H-benzimidazole] | better | better | better |  |
| COc1ccc2[nH]c([S+]([O-])Cc3ncc(C)c(OC)c3C)nc2c1 (stereo not shown) [omeprazole form C, 5-methoxy-2-[[(4-methoxy-3,5-dimethyl-2-pyridinyl)methyl]sulfinyl]-1H-benzimidazole] |  |  |  | stable according to the standard protocol |
